Reference: US7556938B1, “Nucleic acids encoding potassium channel interactors” (Millennium Pharmaceuticals, Inc., priority 1998, dated 2009)

Molecular target: T1, Kv4.3/KChIP1 (Rattus norvegicus, UniProt Q62897)
T1 sequence (Q62897 1-655): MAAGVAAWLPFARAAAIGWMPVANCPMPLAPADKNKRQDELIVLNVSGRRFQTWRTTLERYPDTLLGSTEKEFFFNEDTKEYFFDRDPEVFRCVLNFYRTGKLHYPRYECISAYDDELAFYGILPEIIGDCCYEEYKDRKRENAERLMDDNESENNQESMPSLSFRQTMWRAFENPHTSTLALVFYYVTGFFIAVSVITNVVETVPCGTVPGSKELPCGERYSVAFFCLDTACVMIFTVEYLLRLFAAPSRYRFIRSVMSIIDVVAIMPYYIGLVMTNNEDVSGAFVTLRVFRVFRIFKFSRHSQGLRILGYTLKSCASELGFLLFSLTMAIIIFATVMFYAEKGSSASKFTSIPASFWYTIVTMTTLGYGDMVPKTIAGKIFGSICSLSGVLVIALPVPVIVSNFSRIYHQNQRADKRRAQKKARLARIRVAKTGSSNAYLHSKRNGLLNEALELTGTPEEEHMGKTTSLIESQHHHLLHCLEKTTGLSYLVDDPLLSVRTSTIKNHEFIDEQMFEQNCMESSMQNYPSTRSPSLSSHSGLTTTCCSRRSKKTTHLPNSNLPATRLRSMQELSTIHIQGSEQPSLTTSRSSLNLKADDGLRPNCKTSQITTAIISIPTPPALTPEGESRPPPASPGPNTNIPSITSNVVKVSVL
T1 sequence (Q8R426 1-216 isoform Q8R426-2 partner): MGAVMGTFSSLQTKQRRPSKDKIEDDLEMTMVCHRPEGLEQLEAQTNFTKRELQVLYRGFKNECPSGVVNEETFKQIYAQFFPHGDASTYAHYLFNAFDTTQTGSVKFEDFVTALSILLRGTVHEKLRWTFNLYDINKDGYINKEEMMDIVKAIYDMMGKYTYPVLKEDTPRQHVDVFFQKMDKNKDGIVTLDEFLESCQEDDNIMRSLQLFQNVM
Experiment: Fatty acid modulation of Kv4.3/KChIP1 current in Xenopus oocytes
Assay type: cell-based
Procedure: Frogs underwent no more than two surgeries and surgeries were performed by well established techniques. Frogs were anesthetized with ice. Total cRNA (1-10 ng) was injected into stage IV Xenopus oocytes that were harvested the previous day. The Xenopus oocytes were incubated in ND96 containing (in mM) 96 NaCl, 2 KCl, 1.8 CaCl2, 1 MgCl2, 5 HEPES, pH 7.6, plus (Gentamycin 50 μg/ml) at 18° C. Xenopus oocytes were studied 3-7 days after injection. The two-electrode voltage-clamp recordings were performed in ND96 solution using a TURBO TEC 03 Clamp Amplifier (ALA Scientific Instruments, Westbury, N.Y.). Both electrodes were filled with 3 M KCl and had electrode resistances ranging from 0.2-1 MOhm. The current signals were filtered at 1000 Hz before transferred on a PC (Gateway, Calif.) using the PULSE software (HEKA, Germany). In this Example, the hypothesis that […] were the missing auxiliary subunits that accounted for the above kinetic discrepancy was investigated by expressing Kv4 alone or together with […] in both CHO cells and Xenopus oocytes, and measuring their inactivation time constants (using art known techniques as described in, for example, An et al. (2000) Nature 403:553-6; Keros, S. and […]. Neuroscience 17: 3476-87; and Villarroel, A. and […]. Neuroscience 16:2522-32). The effects of different concentrations of arachidonic acid on Kv4/KChIP current was studied in Xenopus oocytes. Because the physiological concentrations of arachidonic acid are often under 10 μM (Needleman, et al., 1986 Annu Rev Biochem 55:69-102; Anderson and Welsh, 1990, Proc Natl Acad Sci USA 87:7334-8; Meves, 1994, Prog Neurobiol 43:175-86), arachidonic acid was tested in the 1-10 μM range. […] Further, the slope of amplitude reduction as a function of increasing concentrations was very similar with or without the presence of […]. […] Villarroel and Schwarz, (1996) J.

[1] = Kv4.3/KChIP1, 10 μM AA, listed as AA

CCCCC/C=C\C/C=C\C/C=C\C/C=C\CCCC(=O)O [arachidonic acid]
Inactivation time constant (ms ± SEM) [1]: 55 ± 4 ms
Peak amplitude (μA ± SEM) [1]: 21±4 μA
block of Kv4.3 peak amplitude (Kv4.3/KChIP1, 10 μM fatty acid, vs no-fatty acid control): inhibited significantly
block of Kv4.3 peak amplitude (Kv4.3/KChIP1, 1-10 μM arachidonic acid): concentration-dependent block
effect on Kv4.3 inactivation time constant (Kv4.3 co-expressed with KChIP1, 10 μM fatty acid): reduced Kv4.3 inactivation time constant
effect on inactivation time constant (presence of KChIP1, 1-10 μM arachidonic acid): decreased in a concentration-dependent manner
